Laboratory results as given in US10781204B2, “TYK2 inhibitors and uses thereof” (Nimbus Lakshmi, Inc., priority 2015, dated 2020).

How the values were obtained:
TYK2 = TYK2 (Homo sapiens (Human), UniProt P29597); test: Tyk2 radioactive kinase assay; assay type: biochemical; settings: ATP 10 μM
Experimental: (§1) Peptide substrate, [KKSRGDYMTMQIG], (20 μM) is prepared in reaction buffer (20 mM Hepes pH 7.5, 10 mM MgCl2, 1 mM EGTA, 0.02% Brij35, 0.02 mg/mL BSA, 0.1 mM […], 2 mM DTT, 1% DMSO. TYK2 (Invitrogen) kinase is added, followed by compounds in DMSO. ^33PATP is added to initiate the reaction with ATP at 10 μM. Kinase reaction is incubated for 120 min at room temp and reactions are spotted onto P81 ion exchange paper (Whatman #3698-915), and then washed extensively in 0.75% phosphoric acid, prior to reading the radioactivity counts. For JAK2 (Invitrogen) kinase assay the peptide substrate poly[Glu:Tyr] (4:1), 0.2 mg/ml is used, in the reaction carried out the same as for TYK2.

JAK2 = JAK2 (Homo sapiens (Human), UniProt O60674); test: JAK2 radioactive kinase assay; assay type: biochemical; settings: ATP 10 μM
Experimental: as §1

JAK2, sequence (O60674 whole entry): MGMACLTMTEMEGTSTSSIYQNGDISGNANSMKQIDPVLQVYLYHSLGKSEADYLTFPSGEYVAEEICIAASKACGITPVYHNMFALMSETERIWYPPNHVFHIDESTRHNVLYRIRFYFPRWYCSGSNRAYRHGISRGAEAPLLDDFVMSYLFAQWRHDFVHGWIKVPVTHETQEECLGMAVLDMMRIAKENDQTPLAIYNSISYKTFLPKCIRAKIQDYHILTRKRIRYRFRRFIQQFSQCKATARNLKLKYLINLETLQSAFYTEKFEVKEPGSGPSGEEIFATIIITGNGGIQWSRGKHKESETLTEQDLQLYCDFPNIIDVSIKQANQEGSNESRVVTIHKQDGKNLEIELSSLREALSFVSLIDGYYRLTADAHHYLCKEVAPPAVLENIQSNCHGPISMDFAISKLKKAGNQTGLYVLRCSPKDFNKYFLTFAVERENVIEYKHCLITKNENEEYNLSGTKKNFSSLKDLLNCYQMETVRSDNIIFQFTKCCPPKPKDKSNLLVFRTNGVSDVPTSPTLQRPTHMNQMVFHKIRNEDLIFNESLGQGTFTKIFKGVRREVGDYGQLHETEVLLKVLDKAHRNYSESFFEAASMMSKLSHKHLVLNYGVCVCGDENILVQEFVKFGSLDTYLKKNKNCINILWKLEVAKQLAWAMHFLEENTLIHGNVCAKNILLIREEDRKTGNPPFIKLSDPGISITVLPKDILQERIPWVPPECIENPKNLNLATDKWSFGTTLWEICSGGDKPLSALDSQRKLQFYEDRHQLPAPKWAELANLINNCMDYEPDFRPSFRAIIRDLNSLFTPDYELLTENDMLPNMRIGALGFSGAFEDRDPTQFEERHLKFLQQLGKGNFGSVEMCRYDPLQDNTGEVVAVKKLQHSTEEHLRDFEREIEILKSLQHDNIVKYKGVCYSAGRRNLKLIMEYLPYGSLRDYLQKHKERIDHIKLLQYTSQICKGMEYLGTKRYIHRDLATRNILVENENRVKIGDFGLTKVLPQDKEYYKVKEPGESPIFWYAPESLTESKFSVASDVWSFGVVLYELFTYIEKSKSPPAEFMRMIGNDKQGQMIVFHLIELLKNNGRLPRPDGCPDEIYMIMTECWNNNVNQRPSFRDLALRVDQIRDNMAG
TYK2, sequence (P29597 whole entry): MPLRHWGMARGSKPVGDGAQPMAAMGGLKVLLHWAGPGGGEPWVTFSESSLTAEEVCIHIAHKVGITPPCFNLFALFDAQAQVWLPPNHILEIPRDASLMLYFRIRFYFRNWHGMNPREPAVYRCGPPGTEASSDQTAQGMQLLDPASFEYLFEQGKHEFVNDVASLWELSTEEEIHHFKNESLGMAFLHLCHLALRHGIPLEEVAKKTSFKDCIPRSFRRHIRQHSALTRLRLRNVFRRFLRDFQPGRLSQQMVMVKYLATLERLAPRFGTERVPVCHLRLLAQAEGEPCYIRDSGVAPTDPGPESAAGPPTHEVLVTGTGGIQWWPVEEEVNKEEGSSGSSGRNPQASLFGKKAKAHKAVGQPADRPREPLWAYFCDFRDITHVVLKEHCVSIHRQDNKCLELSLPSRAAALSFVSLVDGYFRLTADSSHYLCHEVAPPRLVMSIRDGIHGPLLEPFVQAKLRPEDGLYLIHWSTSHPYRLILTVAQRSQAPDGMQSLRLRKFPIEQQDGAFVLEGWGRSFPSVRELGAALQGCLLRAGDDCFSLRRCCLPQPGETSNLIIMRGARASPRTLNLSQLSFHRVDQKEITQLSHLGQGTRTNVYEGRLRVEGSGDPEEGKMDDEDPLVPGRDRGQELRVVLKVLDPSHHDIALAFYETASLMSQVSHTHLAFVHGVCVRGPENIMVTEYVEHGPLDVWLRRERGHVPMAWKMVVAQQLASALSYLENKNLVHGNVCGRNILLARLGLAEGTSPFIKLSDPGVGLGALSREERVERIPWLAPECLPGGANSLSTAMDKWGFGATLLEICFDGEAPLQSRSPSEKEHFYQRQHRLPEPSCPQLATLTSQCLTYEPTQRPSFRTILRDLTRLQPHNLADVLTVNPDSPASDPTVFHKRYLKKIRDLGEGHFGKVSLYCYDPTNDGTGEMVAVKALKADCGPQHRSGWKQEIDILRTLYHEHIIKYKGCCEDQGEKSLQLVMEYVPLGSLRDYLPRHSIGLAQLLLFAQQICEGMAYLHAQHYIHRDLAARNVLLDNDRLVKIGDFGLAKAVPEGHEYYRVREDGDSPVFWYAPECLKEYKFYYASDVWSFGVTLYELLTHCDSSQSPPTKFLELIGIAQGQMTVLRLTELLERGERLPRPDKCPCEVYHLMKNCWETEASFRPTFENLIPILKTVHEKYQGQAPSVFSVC

CC1(O)CN(c2ccn(-c3cc(-c4c(F)cccc4C#N)nc4c3C(=O)NC4)n2)CC[C@H]1O (stereo partly drawn) [I-108, 2-(4-(3-((4R)-3,4-dihydroxy-3-methylpiperidin-1-yl)-1H-pyrazol-1-yl)-5-oxo-6,7-dihydro-5H-pyrrolo[3,4-b]pyridin-2-yl)-3-fluorobenzonitrile] was tested. Which Ki (TYK2) did it give?
The Ki was 0.1 to 10 nM.

What about the Ki (JAK2) of the same compound?
The Ki was 0.1 to 10 nM.

For CN(C)[C@H]1CC[C@H](Oc2ccn(-c3cc(-c4c(F)cccc4C#N)nc4c3C(=O)NC4)n2)CC1 [I-117, 2-(4-(3-(((1r,4r)-4-(dimethylamino)cyclohexyl)oxy)-1H-pyrazol-1-yl)-5-oxo-6,7-dihydro-5H-pyrrolo[3,4-b]pyridin-2-yl)-3-fluorobenzonitrile], which Ki (TYK2) is on record?
The Ki was 0.1 to 10 nM.

And the Ki (JAK2)?
Its Ki is 10 to 100 nM.

[2H]C([2H])([2H])O[C@H]1CN(c2ccn(-c3cc(-c4c(F)cccc4C#N)nc4c3C(=O)NC4)n2)C[C@H]1O [I-199, 3-fluoro-2-(4-(3-((3R,4S)-3-hydroxy-4-(methoxy-d3)pyrrolidin-1-yl)-1H-pyrazol-1-yl)-5-oxo-6,7-dihydro-5H-pyrrolo[3,4-b]pyridin-2-yl)benzonitrile] was tested. Which Ki (TYK2) did it give?
Its Ki is 0.1 to 10 nM.

What about the Ki (JAK2) of the same compound?
Its Ki is 10 to 100 nM.

Which results are given for COCCOC1CN(c2ccn(-c3cc(-c4c(F)cccc4C#N)nc4c3C(=O)NC4)n2)C1 [I-82, 3-fluoro-2-(4-(3-(3-(2-methoxyethoxy)azetidin-1-yl)-1H-pyrazol-1-yl)-5-oxo-6,7-dihydro-5H-pyrrolo[3,4-b]pyridin-2-yl)benzonitrile]?
Ki (TYK2): ≥ 1000 nM; Ki (JAK2): ≥ 1000 nM

CC1(O)CCN(c2ccn(-c3cc(-c4c(F)cccc4C#N)nc4c3C(=O)NC4)n2)C1 (stereo not shown) [I-87, 3-fluoro-2-(4-(3-(3-hydroxy-3-methylpyrrolidin-1-yl)-1H-pyrazol-1-yl)-5-oxo-6,7-dihydro-5H-pyrrolo[3,4-b]pyridin-2-yl)benzonitrile] was tested. Which Ki (TYK2) did it give?
Its Ki is 0.1 to 10 nM.

What about the Ki (JAK2) of the same compound?
Its Ki is 10 to 100 nM.

How did the Ki (TYK2) turn out when N#Cc1cccc(F)c1-c1cc(-n2ccc(N3CCC[C@H](O)[C@H](O)C3)n2)c2c(n1)CNC2=O [I-115, 2-(4-(3-((3R,4S)-3,4-dihydroxyazepan-1-yl)-1H-pyrazol-1-yl)-5-oxo-6,7-dihydro-5H-pyrrolo[3,4-b]pyridin-2-yl)-3-fluorobenzonitrile] was run?
The Ki was 0.1 to 10 nM.

And the Ki (JAK2)?
The Ki was 10 to 100 nM.

With N#Cc1cccc(F)c1-c1cc(-n2ccc(N3CCC(N4CCCC4)CC3)n2)c2c(n1)CNC2=O [I-66, 3-fluoro-2-(5-oxo-4-(3-(4-(pyrrolidin-1-yl)piperidin-1-yl)-1H-pyrazol-1-yl)-6,7-dihydro-5H-pyrrolo[3,4-b]pyridin-2-yl)benzonitrile] as the compound, how does the Ki (TYK2) read?
The Ki was 0.1 to 10 nM.

And the Ki (JAK2)?
Its Ki is 10 to 100 nM.

C[C@]1(O)CN(c2ccn(-c3cc(-c4c(F)cccc4C#N)nc4c3C(=O)NC4)n2)C[C@@](C)(O)C1 [I-144, 2-(4-(3-((3S,5R)-3,5-dihydroxy-3,5-dimethylpiperidin-1-yl)-1H-pyrazol-1-yl)-5-oxo-6,7-dihydro-5H-pyrrolo[3,4-b]pyridin-2-yl)-3-fluorobenzonitrile] was tested. Which Ki (TYK2) did it give?
The Ki was 10 to 100 nM.

And the Ki (JAK2)?
Its Ki is 100 to 1000 nM.

For O=C1NCc2nc(-c3c(F)cccc3F)cc(-n3cccn3)c21 [I-58, 2-(2,6-difluorophenyl)-4-(1H-pyrazol-1-yl)-6,7-dihydro-5H-pyrrolo[3,4-b]pyridin-5-one], which Ki (TYK2) is on record?
Its Ki is 10 to 100 nM.

What about the Ki (JAK2) of the same compound?
Its Ki is 100 to 1000 nM.

What does the source list for CN1CCN(c2ccn(-c3cc(-c4c(F)cccc4F)nc4c3C(=O)NC4)n2)CC1 [I-5, 2-(2,6-difluorophenyl)-4-(3-(4-methylpiperazin-1-yl)-1H-pyrazol-1-yl)-6,7-dihydro-5H-pyrrolo[3,4-b]pyridin-5-one]?
Ki (TYK2): 0.1 to 10 nM; Ki (JAK2): 100 to 1000 nM

N#Cc1cccc(F)c1-c1cc(-n2ccc(N3CC[C@H](F)[C@H](O)C3)n2)c2c(n1)CNC2=O [I-174, 3-fluoro-2-(4-(3-((3R,4S)-4-fluoro-3-hydroxypiperidin-1-yl)-1H-pyrazol-1-yl)-5-oxo-6,7-dihydro-5H-pyrrolo[3,4-b]pyridin-2-yl)benzonitrile] was tested. Which Ki (TYK2) did it give?
The Ki was 0.1 to 10 nM.

What about the Ki (JAK2) of the same compound?
The Ki was 10 to 100 nM.
